Experimental data reported in patent publication US5770570A, “Method of delivering a vasoactive intestinal polypeptide, an encapsulated vasoactive intestinal polypeptide, and a method of making the encapsulated vasoactive intestinal polypeptide” (priority 1995, dated 1998).
Values joined by “and” are separate entries in the source; they are usually repeats but may differ in a detail not shown here. Identical values can stand only once. Blank lines part the entries; values can stand above or below the substance they belong to. Ends that are not written are not given here. * marks the point of attachment. 125I = [125I]*

Key:
[1] = Encapsulation of probes by making liposomes in their presence (Table 1); format: physicochemical; conditions: liposomes made from lipid solutions 2.6 mM Pi containing 2.5 μM probe
Protocol: (§1) Values are means±s.d. Probe-binding was with pre-formed liposomes (2.3 mM Pi) and 100 nM CF or 0.2 nM (tyr^10 -^125 I)VIP mixed with 100 nM unlabeled peptide. Encapsulation was by making liposomes from lipid solutions (2.6 mM Pi) containing 2.5 μM CF or 1.7 nM (Tyr^10 -^125 I)VIP mixed with 2.5 μM unlabeled VIP. Free probes were removed by three washes with 50 mM HEPES, pH 7.3, containing 0.5% BSA. CF values were determined by fluorimetry after solubilization of liposomes, and VIP values, by measurement of liposome-associated radioactivity.

[2] = test system: hamster check pouch microcirculation; test: Untoward effects and leaky sites in check pouch microcirculation; format: in vivo; conditions: i.v. infusion in hamsters
Protocol: (§2) The animals were kept on a heated pad throughout the duration of the experiment. Arterial blood pressure was recorded continuously using a pressure transducer and a strip-chart recorder (Model 7702B, Hewlett-Packard). The microcirculation of the hamster check pouch was visualized using intravital microscopy and clearance of fluorescein isothiocyanic-dextran (M.W.=70 RD; Sigma) from postcapillary venules and determined as described in W. G. Mayhan and I. Rubinstein, J. Appl. Physiol., 75, pp. 27-32 (1993).
(§3) The number of leaky sites in check pouch microcirculation was determined every minute throughout the duration of the experiments as disclosed in W. G. Mayhan, Supra. The data is expressed as means±SEM. Students t-test for unpaired observations was used to compare responses to vasoactive intestinal peptide. A p value<0.05 was considered to be significant.

[3] = test system: male golden Syrian hamsters; test: Hypotensive effect (mean arterial blood pressure) in anesthetized hamsters; format: in vivo, hamster
Protocol: The hamsters were first prepared by anesthetizing intravenously 6 mg of sodium pentobarbital per 100 g of body weight. A tracheostomy was then performed to facilitate spontaneous breathing. Supplemental anesthesia was administered intravenously as necessary at 2-4 mg/100 g body weight/hour. A femoral artery was cannulated for blood pressure monitoring. A femoral vein was cannulated for drug and florescent tracer administration.
as §2
In each hamster, 1 ml aliquots of increasing concentrations of VIP dissolved in 0.15M sodium chloride or encapsulated in liposomes (1 nmol VIP/0.12 μmol phospholipids) were infused intravenously for 7 minutes.
Mean arterial blood pressure was recorded before, during, and for 60 minutes after administration of each concentration of the peptide.
as §3
The effect on blood pressure was determined by measuring the magnitude of reduction in mean arterial blood pressure (MAP) as a function of time following infusion of VIP dissolved in saline or encapsulated in liposomes.

PG/PC/CH liposomes = test: Binding of VIP by pre-formed lipid liposomes (PG/PC/CH); conditions: for binding of radiolabeled VIP by liposomes, % of available peptide: liposomes 2.5-45.6 mM Pi, 0.42 nM peptide
Protocol: (§4) Unilaminar phospholipid liposomes were formed using phosphatidylcholine (PC) and phosphatidylglycerol (PG) purified from egg yolk (Sigma). The fatty acid composition of the phospholipids determined by Sigma was: (PC, C16:0), (35%; C18:0, 12%; C18:1, 31%; C18:2, 14%); (PG, C16:0, 30%, C18:0, 13%; C18:1, 30%; C18:2, 16%). The unilamellar liposomes were prepared by reverse-phase evaporation as disclosed in Szoka, Jr., F. and Papahadjopoulos (1978) Proc. Natl. Acad. Sci. USA 75, 4194-4198), from a mixture of PG/PC/CH(cholesterol) (molar ratio 1:4:5) or PC/CH (1:1) dissolved in chloroform.
Peptide was permitted to bind liposome surface in aqueous solution. In organic solvents as in Example I, the peptide will be expressed in as well as on the lipid membranes of liposomes.
The liposomes were the pelleted (12,000×g, 10 min; Beckman centrifuge MICROFUGE®). The supernatant was aspirated and the liposome-associatedradioactivity was measured at 70% efficiency (Beckman model 5500 gamma counter). There was minimal loss of the liposomes in the supernatant, because more than 90% of the inorganic phosphate present in the reaction mixture was recovered in the pellet.
The binding data was corrected for peptide adsorption by the reaction tubes determined in parallel incubations.
Dissociation and saturability data were analyzed by means of Kinetic and Enzfitter (Elsevier Biosoft).
The binding of the VIP to the liposome was determined as follows. Unilamellar lipid liposomes were prepared by reverse evaporation and assayed for binding of radiolabeled VIP, as described above. BSA was included in the assay diluent to saturate nonspecific polypeptide binding sites in the lipid liposomes and the polypropylene surface of the reaction tubes.
as §1
FIG. 5 illustrates the results of the competitive inhibition of binding of (Tyr^10-^125)VIP (0.26 nM) by the liposomes (2.4 mM Pi) by unlabeled VIP (10 nM-1 mM). Data are means±s.d expressed as % of available radiolabeled peptide. […]

PC/CH liposomes = test: Binding of VIP by electrically neutral liposomes (PC/CH); conditions: VIP 100 nM
Protocol: as §4
The binding of VIP (100 nM) by electrically neutral and negative liposomes prepared from PC/CH and PG/PC/CH, respectively, was compared. In each case, the levels of peptide binding increased within increasing concentration of the liposomes. The values of % VIP bound±s.d./μmol Pi were, PG/PC/CH liposomes, 26.2+3.4; PC/CH liposomes, 12.6±1.5. […] The inclusion of cholesterol, an agent that can be expected to decrease bilayer fluidity at the temperatures used in this study, as reported in Demel, R. A. and DeKruyff, B. (1976) Biochim. Biophys.

[4] = Release of liposome-bound VIP by solvent treatments (Table 2); format: physicochemical; conditions: twice 1 ml for 10 min, 23° C.
Protocol: Lipid liposomes (4 mM Pi) were permitted to bind (Tyr^10 -^125 I)VIP (1 nM), washed extensively to remove unbound radioactivity and then treated twice with 1 ml of the indicated solutions for 10 min (23° C.). Released radioactivity was determined in the pooled supernatant obtained by centrifugation. Values are % of initial liposome-bound radioactivity (76,300 CPM), corrected for peptide release in control incubations performed in 50 mM HEPES, pH 7.3 (4.2±3.4%).

PC/PG liposomes = test: Binding of VIP by liposomes without cholesterol (PC/PG); conditions: PC/PG liposomes (no cholesterol)
[5] = biological target: (tyr^10 -^125 I)VIP (radioiodinated synthetic vasoactive intestinal polypeptide)
[6] = Release (leakage) of VIP from liposomes stored in buffer; format: physicochemical; conditions: stored in buffer at 4° C. for 14 days
Protocol: The release of VIP from the liposomes was determined as follows.
The peptide release from liposomes containing (tyr^10 -^125 I)VIP, approximately 20,000 cpm, kept at 4° C. in 50 mM HEPES, pH 7.3, containing 0.02% […] was determined by centrifugation of aliquots of the suspension at 12,400×g for 15 minutes and measurement of radioactivity in the supernatants.

[7] = pre-formed liposomes 2.3 mM Pi, 100 nM CF or 0.2 nM tracer with 100 nM unlabeled VIP

apparent binding capacity at saturating VIP concentrations (PG/PC/CH liposomes): 1 mol VIP/12.5 mol phospholipid
IC50 (PG/PC/CH liposomes; 0.26 nM tracer, liposomes 2.4 mM Pi, read-out: IC50, competitive inhibition of partitioning of (Tyr10-125I)VIP into liposomes): 560 µM
% VIP bound/μmol Pi (PG/PC/CH liposomes; VIP 100 nM, PG/PC/CH liposomes): 26.2 ± 3.4% and 26.2%
partition constant derived from the binding isotherm (PG/PC/CH liposomes; nominal value, neutral pH): 1400 M⁻¹
Binding (PG/PC/CH liposomes; [7]): 20.5 ± 1.0 nM
% VIP bound/μmol Pi (PC/CH liposomes): 12.6±1.5%
% VIP bound/μmole Pi (PC/PG liposomes): 24.9%
Substance: HSDAVFTDNYTRLLRKQMAVKKYLNSILN-NH2 (not fully specified (residue 10); printed as HSDAVFTDNYTRLLRKQMAVKKYLNSILN-NH2) [VIP, synthetic 28-amino acid neuropeptide; conventional VIP solution used as comparator]
Encapsulation [1]: 37.5 ± 5.0 nM
untoward effects during infusion [2]: did not display detectable untoward effects
decrease in MAP ([3]; 1 nmole per hamster): weak and transient decrease in MAP
time at which a significant decrease in MAP was observed ([3]; 1 nmole per hamster, i.v. infusion 7 minutes): 5 min
MAP values for treated animals (FIG. 2 legend, apparently baseline) ([3]; 1.0 nmole, 7 minutes i.v. infusion, n=5): 93.0 mm Hg
return of arterial blood pressure to pre-infusion baseline ([3]; 1 nmole, FIG. 2): 9 min
reversibility of the hypotensive effect ([3]; hamster, in vivo): fully reversible
% VIP released ([4]; 1 mM HCl): 3.0 ± 3.5%
% VIP released ([4]; 1 mM NaOH): 15.9 ± 4.0%
% VIP released ([4]; 25 mM EDTA): 8.1 ± 10.0%
% VIP released ([4]; 1% SDS): 81.1 ± 9.6%
% VIP released ([4]; 1 M NaCl): 2.7 ± 3.0%

peptide hydrolysis (trichloroacetic acid-soluble radioactivity of (tyr^10 -^125 I)VIP) [5]: 80 % digested
Substance: trypsin from bovine pancreas (Sigma) (from UniProt P00760) (enzyme)

binding of radiolabeled VIP by liposomes, % of available peptide (PG/PC/CH liposomes): up to 56.6%
binding of radiolabeled VIP by liposomes, % of available peptide (PG/PC/CH liposomes; listed as radiolabeled VIP): up to 60%
Substance: (tyr^10 -^125 I)VIP: VIP radioiodinated at tyrosine 10, used as tracer (HSDAVFTDNY(125I)TRLLRKQMAVKKYLNSILN-NH2)
leakage of (tyr10-125I)VIP from the liposomes [6]: < 2 % of available radioactivity

Encapsulation [1]: 82.5 ± 7.5 nM
Binding (PG/PC/CH liposomes; [7]): 0.01 ± 0.001 nM
Binding, nM (PG/PC/CH liposomes; pre-formed liposomes 2.3 mM Pi, 100 nM CF or 0.2 nM tracer with 100 nM unlabeled VIP, listed as carboxyfluorescein): very small amounts
Substance: carboxyfluorescein [CF]
